Laboratory results from patent US9546153B2, “Bicyclic heterocycle substituted pyridyl compounds useful as kinase modulators” (BRISTOL-MYERS SQUIBB COMPANY, priority 2012, dated 2017).
Like-named read-outs stand apart in the source and are kept apart here.

Experiments:
IRAK4 = IRAK4 (Homo sapiens (Human), UniProt Q9NWZ3); experiment: IRAK4 Inhibition Assay; assay type: biochemical; details: ATP 500 μM; IRAK4 0.6 nM; 60 min at room temperature
Method: The assays were performed in U-bottom 384-well plates. […] The reaction was initiated by the combination of IRAK4 with substrates and test compounds. The reaction was incubated at room temperature for 60 min. and terminated by adding 45 μL of 35 mM EDTA to each sample. The reaction mixture was analyzed on the Caliper LABCHIP® 3000 (Caliper, Hopkinton, Mass.) by electrophoretic separation of the fluorescent substrate and phosphorylated product.

[1] = system: TLR2 induced IL-6 in peripheral blood mononuclear cells (PBMCs); experiment: PBMC TLR2 Induced IL-6 Assay; assay type: cell-based, human; details: human PBMCs, 10 μg/ml lipoteichoic acid for 5 hours, IL-6 by ELISA, value without asterisk, read-out: Cell IC50
Method in brief: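 IL-6 ELISA of supernatants after a 5 h challenge with the TLR2 agonist lipoteichoic acid (10 μg/ml). Before stimulation, human PBMCs (250000 cells/well; RPMI, 10% heat-inactivated FCS) received compound for 30 min at 37° C. Values given as IC50 or EC50.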

Chain of IRAK4 (Q9NWZ3 whole entry, species assumed): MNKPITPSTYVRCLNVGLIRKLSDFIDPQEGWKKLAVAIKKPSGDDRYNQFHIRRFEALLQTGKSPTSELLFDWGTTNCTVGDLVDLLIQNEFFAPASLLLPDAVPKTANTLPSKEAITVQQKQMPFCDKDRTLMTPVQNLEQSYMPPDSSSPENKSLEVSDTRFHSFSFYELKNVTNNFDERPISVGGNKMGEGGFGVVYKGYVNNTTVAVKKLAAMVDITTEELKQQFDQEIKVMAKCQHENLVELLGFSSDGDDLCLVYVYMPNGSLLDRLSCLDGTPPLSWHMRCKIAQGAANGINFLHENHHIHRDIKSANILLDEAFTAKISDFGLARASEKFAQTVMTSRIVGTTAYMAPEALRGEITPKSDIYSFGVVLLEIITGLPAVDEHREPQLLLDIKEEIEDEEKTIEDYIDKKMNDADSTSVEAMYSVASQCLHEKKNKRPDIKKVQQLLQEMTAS

| Structure (SMILES) | IC50 (IRAK4) [nM] | IC50 ([1]; Homo sapiens, PBMC, 5 h) [nM] | IC50 [1] [nM] |
| --- | --- | --- | --- |
| CC(C)Nc1cc(Nc2ccc3ncc(Cl)cc3n2)ncc1C(=O)NC[C@@H](F)C(C)(C)O [Example 374] | 3.1 | 271 |  |
| CC(C)(O)[C@H](F)CNC(=O)c1cnc(Nc2ccc3ncsc3c2)cc1Nc1ccc(S(C)(=O)=O)cc1 [Example 382] | 6.3 | 491 |  |
| CC(C)(O)[C@H](F)CNC(=O)c1cnc(Nc2ccn3nccc3n2)cc1Nc1ccc(S(C)(=O)=O)cc1 [Example 383] | 6.3 | 194 |  |
| CC(C)(O)[C@H](F)CNC(=O)c1cnc(Nc2ccc3ncsc3c2)cc1NC1CCSCC1 [Example 384] | 3.5 | 180 |  |
| CC(C)(O)[C@H](F)CNC(=O)c1cnc(Nc2ccn3nccc3n2)cc1NC1CCSCC1 [Example 385] | 4.3 | 135 |  |
| CC(C)(O)[C@H](F)CNC(=O)c1cnc(Nc2ccn3nccc3n2)cc1NCC(F)F [Example 386] | 20.1 | 516 |  |
| CCC(C)Nc1cc(Nc2ccn3nccc3n2)ncc1C(=O)NC[C@@H](F)C(C)(C)O (stereo partly drawn) [Example 387] | 4.3 | 293 |  |
| CCC(C)Nc1cc(Nc2ccn3nccc3n2)ncc1C(=O)NC[C@@H](F)C(C)(C)O (stereo partly drawn) [Example 388] | 6.6 |  | 234 |
| CCC(O)(CC)[C@H](F)CNC(=O)c1cnc(Nc2ccn3nccc3n2)cc1NCC(C)(C)F [Example 389] | 10.4 | 574 |  |
| CC(C)(O)[C@H](F)CNC(=O)c1cnc(Nc2nc3ccnn3cc2F)cc1NC1CCC(F)(F)C1 (stereo partly drawn) [Example 391] | 2.5 |  | 119 |
| CC(C)(O)[C@H](F)CNC(=O)c1cnc(Nc2nc3ccnn3cc2F)cc1NC1CCC(F)(F)C1 (stereo partly drawn) [Example 392] | 8 |  | 297 |
| CC(C)(O)[C@H](F)CNC(=O)c1cnc(Nc2ccc3ncsc3c2)cc1NC12CCC(NC(=O)c3ccccc3)(CC1)C2 [Example 394] | 10.2 | 311 |  |
| CC(C)(O)[C@H](F)CNC(=O)c1cnc(Nc2ccc3ncsc3c2)cc1NC12CCC(NC(=O)c3cccnc3)(CC1)C2 [Example 395] | 4.4 | 333 |  |
| CC(C)(O)[C@H](F)CNC(=O)c1cnc(Nc2ccc3ncsc3c2)cc1NC12CCC(NS(C)(=O)=O)(CC1)C2 [Example 396] | 2.7 | 351 |  |
| CCOC(=O)NC12CCC(Nc3cc(Nc4ccc5ncsc5c4)ncc3C(=O)NC[C@@H](F)C(C)(C)O)(CC1)C2 [Example 397] | 4.9 | 197 |  |
| CN(C)CC(=O)NC12CCC(Nc3cc(Nc4ccc5ncsc5c4)ncc3C(=O)NC[C@@H](F)C(C)(C)O)(CC1)C2 [Example 398] | 3.5 | 301 |  |
| CC(C)(O)[C@H](F)CNC(=O)c1cnc(Nc2ccc3ncsc3c2)cc1NC12CCC(NC(=O)c3ccncc3)(CC1)C2 [Example 399] | 3.1 | 203 |  |
| CC(C)(O)[C@H](F)CNC(=O)c1cnc(Nc2ccc3ncsc3c2)cc1NC12CCC(NC(=O)c3ccccn3)(CC1)C2 [Example 400] | 7.5 | 119 |  |
| CC(C)(O)[C@H](F)CNC(=O)c1cnc(Nc2ccc3ncsc3c2)cc1NC12CCC(NS(=O)(=O)c3ccccc3)(CC1)C2 [Example 401] | 12.6 | 328 |  |
| CC(C)Nc1cc(Nc2ccc3ncsc3c2)ncc1C(=O)NCCN1CCOCC1 [Example 402] | 9 | 357 |  |
| CCC(O)(CC)[C@H](F)CNC(=O)c1cnc(Nc2cc3scnc3cn2)cc1NC1CC1 [Example 403] | 21 | 1480 |  |
| CC(C)(O)[C@H](F)CNC(=O)c1cnc(Nc2ccc3ncccc3n2)cc1NC1CCCC1F (stereo partly drawn) [Example 404] | 7.8 | 1010 |  |
| CC(C)(O)[C@H](F)CNC(=O)c1cnc(Nc2ccc3ncccc3n2)cc1NC1CCCC1F (stereo partly drawn) [Example 405] | 5.8 |  | 788 |
| CC(C)(O)[C@H](F)CNC(=O)c1cnc(Nc2ccc3ncc(C#N)cc3n2)cc1NC1CCC(F)(F)C1 (stereo partly drawn) [Example 406] | 11.8 |  | 1320 |
| CC(C)(O)[C@H](F)CNC(=O)c1cnc(Nc2ccc3ncc(C#N)cc3n2)cc1NC1CCC(F)(F)C1 (stereo partly drawn) [Example 407] | 2.7 |  | 260 |
| CC(C)(O)[C@H](F)CNC(=O)c1cnc(Nc2nc3ccnn3cc2F)cc1NC1CCC(F)C1 (stereo partly drawn) [Example 408] | 1.9 |  | 209 |
| CC(C)(O)[C@H](F)CNC(=O)c1cnc(Nc2nc3ccnn3cc2F)cc1NC1CCC(F)C1 (stereo partly drawn) [Example 409] | 3 |  | 207 |
